US9029355B2, “Solid ganaxolone compositions and methods for the making and use thereof” (Marinus Pharmaceuticals, priority 2005, dated 2015)

Assay: Solubility of ganaxolone using water soluble beta cyclodextrins
Assay type: physicochemical
Settings: water soluble beta cyclodextrins (beta-sulfobutyl-cyclodextrin, 2-hydroxypropylbetacyclodextrin)
Description: Ganaxolone formulations suitable for intramuscular, subcutaneous, or intravenous injection may comprise physiologically acceptable sterile aqueous or non-aqueous solutions, dispersions, suspensions or emulsions, and sterile powders for reconstitution into sterile injectable solutions or dispersions. Examples of suitable aqueous and non-aqueous carriers, diluents, solvents, or vehicles including water, ethanol, polyols (propylene glycol, polyethylene-glycol, glycerol, cremophor and the like), suitable mixtures thereof, vegetable oils (such as olive oil) and injectable organic esters such as ethyl oleate. Additionally, Ganaxolone can be dissolved at concentrations of >1 mg/ml using water soluble beta cyclodextrins (e.g. beta-sulfobutyl-cyclodextrin and 2-hydroxypropylbetacyclodextrin. Proper fluidity can be maintained, for example, by the use of a coating such as lecithin, by the maintenance of the required particle size in the case of dispersions, and by the use of surfactants. Ganaxolone formulations suitable for subcutaneous injection may also contain additives such as preserving, wetting, emulsifying, and dispensing agents. Prevention of the growth of microorganisms can be ensured by various antibacterial and antifungal agents, such as parabens, benzoic acid, benzyl alcohol, chlorobutanol, phenol, sorbic acid, and the like. […]

Compound `CC(=O)[C@H]1CC[C@H]2[C@@H]3CC[C@H]4C[C@](C)(O)CC[C@]4(C)[C@H]3CC[C@]12C` [Ganaxolone, 3α-hydroxy-3β-methyl-5α-pregnan-20-one] has a concentration dissolved greater than 1000 µg/mL.
